# Laboratory results as given in PubChem BioAssay AID276 (DTP/NCI, 2004).
# Values joined by “and” are separate entries in the source; they are usually repeats but may differ in a detail not shown here. Equal entries are not always repeated. Toxic doses and inconclusive results are not listed.
# Tested on: B6C3F1 mice, Lewis lung carcinoma iv, survival T/C
# Experiment: NCI In Vivo Anticancer Drug Screen. Data for tumor model Lewis Lung Carcinoma (intravenous) in B6C3F1 mice
# Conditions: endpoint: median survival time, higher = longer survival
# Method in brief: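 Tumors were transplanted into mice, which were then dosed with compound or vehicle. Survival was recorded in each group, and the treated figure was divided by the control figure.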
# [1] = dose: 3.12 mg/kg/injection, schedule: Q01DX009 (ip), vehicle: saline with Tween-80
# [2] = dose: 6.25 mg/kg/injection, schedule: Q01DX009 (ip), vehicle: saline with Tween-80
# [3] = dose: 12.5 mg/kg/injection, schedule: Q01DX009 (ip), vehicle: saline with Tween-80
# [4] = dose: 25.0 mg/kg/injection, schedule: Q01DX009 (ip), vehicle: saline with Tween-80
# [5] = dose: 50.0 mg/kg/injection, schedule: Q01DX009 (ip), vehicle: saline with Tween-80
# [6] = dose: 100.0 mg/kg/injection, schedule: Q01DX009 (ip), vehicle: saline with Tween-80
# [7] = dose: 200.0 mg/kg/injection, schedule: Q01DX009 (ip), vehicle: saline with Tween-80
# [8] = dose: 25.0 mg/kg/injection, schedule: Q01DX009 (ip), vehicle: saline
# [9] = dose: 50.0 mg/kg/injection, schedule: Q01DX009 (ip), vehicle: saline
# [10] = dose: 100.0 mg/kg/injection, schedule: Q01DX009 (ip), vehicle: saline
# [11] = dose: 12.5 mg/kg/injection, schedule: Q01DX009 (ip), vehicle: saline
# [12] = dose: 200.0 mg/kg/injection, schedule: Q01DX009 (ip), vehicle: saline
# [13] = dose: 6.25 mg/kg/injection, schedule: Q01DX009 (ip), vehicle: saline
compound,measurement,setting,value
COc1cc([C@@H]2c3cc4c(cc3[C@@H](OC3OC5COC(C)OC5C(O)C3O)[C@H]3COC(=O)[C@H]23)OCO4)cc(OC)c1O (some centres not stated),T/C,"dose: 0.5 mg/kg/injection, schedule: Q01DX009 (ip), vehicle: Klucel (hydroxypropylcellulose) (HPC)",101 % of control
same,T/C,"dose: 1.0 mg/kg/injection, schedule: Q01DX009 (ip), vehicle: Klucel (hydroxypropylcellulose) (HPC)",102 % of control
same,T/C,"dose: 2.0 mg/kg/injection, schedule: Q01DX009 (ip), vehicle: Klucel (hydroxypropylcellulose) (HPC)",113 % of control
same,T/C,"dose: 2.0 mg/kg/injection, schedule: Q01DX009 (ip), vehicle: suspension in saline",113 % of control and 121 % of control
same,T/C,"dose: 4.0 mg/kg/injection, schedule: Q01DX009 (ip), vehicle: Klucel (hydroxypropylcellulose) (HPC)",124 % of control
same,T/C,"dose: 4.0 mg/kg/injection, schedule: Q01DX009 (ip), vehicle: suspension in saline",109 % of control
same,T/C,"dose: 8.0 mg/kg/injection, schedule: Q01DX009 (ip), vehicle: suspension in saline",151 % of control
same,T/C,"dose: 16.0 mg/kg/injection, schedule: Q01DX009 (ip), vehicle: suspension in saline",166 % of control and 252 % of control
ClC1=C(Cl)C(Cl)=C(Cl)C1=Cc1ccccc1,T/C,[1],94 % of control and 101 % of control
same,T/C,[2],98 % of control and 108 % of control
same,T/C,[3],98 % of control
same,T/C,[4],97 % of control
same,T/C,[5],105 % of control
CO[C@H]1Nc2c(ccc(C)c2O)C(=O)N2C=C(/C=C/C(N)=O)C[C@@H]12,T/C,"dose: 0.06 mg/kg/injection, schedule: Q01DX009 (ip), vehicle: saline + alcohol",105 % of control
same,T/C,"dose: 0.12 mg/kg/injection, schedule: Q01DX009 (ip), vehicle: saline + alcohol",100 % of control
same,T/C,"dose: 0.25 mg/kg/injection, schedule: Q01DX009 (ip), vehicle: saline + alcohol",113 % of control
C[CH2][Sn]([CH2]C)([CH2]C(=O)OC)[CH2]C(=O)OC,T/C,"dose: 0.78 mg/kg/injection, schedule: Q01DX009 (ip), vehicle: saline with Tween-80",102 % of control
same,T/C,"dose: 1.56 mg/kg/injection, schedule: Q01DX009 (ip), vehicle: saline with Tween-80",104 % of control
same,T/C,[1],99 % of control
same,T/C,[2],101 % of control
same,T/C,[3],104 % of control and 105 % of control
CCCCOCN(COCCCC)C(C)Cc1ccccc1 (configuration not stated),T/C,[3],96 % of control
same,T/C,[4],107 % of control
same,T/C,[5],104 % of control
same,T/C,[6],92 % of control
same,T/C,[7],89 % of control
CN(C)c1nc(N(C)C)nc(N(C)C)n1,T/C,[4],101 % of control
same,T/C,[5],114 % of control
same,T/C,[6],109 % of control
same,T/C,[7],111 % of control
C=C(C)C1C2CC3(C)C4(CO4)C4OC4C3(O)C1C(=O)O2 (configuration not stated),T/C,"dose: 0.25 mg/kg/injection, schedule: Q01DX008 (ip), vehicle: Klucel (hydroxypropylcellulose) (HPC)",108 % of control
same,T/C,"dose: 0.5 mg/kg/injection, schedule: Q01DX008 (ip), vehicle: Klucel (hydroxypropylcellulose) (HPC)",102 % of control
same,T/C,"dose: 1.0 mg/kg/injection, schedule: Q01DX008 (ip), vehicle: Klucel (hydroxypropylcellulose) (HPC)",108 % of control
same,T/C,"dose: 2.0 mg/kg/injection, schedule: Q01DX008 (ip), vehicle: Klucel (hydroxypropylcellulose) (HPC)",105 % of control
O=C1CN(CCN2CC(=O)N(CN3CCOCC3)C(=O)C2)CC(=O)N1CN1CCOCC1,T/C,"dose: 100.0 mg/kg/injection, schedule: Q01DX009 (ip), vehicle: water",100 % of control
O=C1NC(=O)NC(C(=O)O)N1,T/C,"dose: 50.0 mg/kg/injection, schedule: Q01DX009 (ip), vehicle: DMSO",101 % of control
same,T/C,"dose: 100.0 mg/kg/injection, schedule: Q01DX009 (ip), vehicle: DMSO",105 % of control
same,T/C,"dose: 200.0 mg/kg/injection, schedule: Q01DX009 (ip), vehicle: DMSO",98 % of control
same,T/C,"dose: 400.0 mg/kg/injection, schedule: Q01DX009 (ip), vehicle: DMSO",110 % of control
CO[C@@]12[C@@H]3N[C@@H]3CN1C1=C(C(=O)C(NCC3CCCO3)=C(C)C1=O)[C@@H]2COC(N)=O (some centres not stated),T/C,"dose: 1.5 mg/kg/injection, schedule: Q01DX009 (ip), vehicle: distilled water + Tween-80",104 % of control
same,T/C,"dose: 3.0 mg/kg/injection, schedule: Q01DX009 (ip), vehicle: distilled water + Tween-80",104 % of control
same,T/C,"dose: 6.0 mg/kg/injection, schedule: Q01DX009 (ip), vehicle: distilled water + Tween-80",116 % of control
N=c1ccn2c(n1)OC1C(O)C(CO)OC12 (configuration not stated),T/C,[8],101 % of control
same,T/C,[9],102 % of control
same,T/C,[10],107 % of control
CC(=O)OCC1OC(n2ccc(N)nc2=O)C(OC(C)=O)C1OC(C)=O (configuration not stated),T/C,[11],92 % of control
same,T/C,[8],100 % of control
same,T/C,[9],101 % of control
same,T/C,[10],115 % of control
same,T/C,[12],115 % of control
O=C1OC(=O)[C@H]2[C@@H]1[C@H]1C=C[C@@H]2OC1=O,T/C,"dose: 12.5 mg/kg/injection, schedule: Q01DX009 (ip), vehicle: suspension in saline",104 % of control
same,T/C,"dose: 25.0 mg/kg/injection, schedule: Q01DX009 (ip), vehicle: suspension in saline",119 % of control
same,T/C,"dose: 50.0 mg/kg/injection, schedule: Q01DX009 (ip), vehicle: suspension in saline",98 % of control
same,T/C,"dose: 100.0 mg/kg/injection, schedule: Q01DX009 (ip), vehicle: suspension in saline",99 % of control
same,T/C,"dose: 200.0 mg/kg/injection, schedule: Q01DX009 (ip), vehicle: suspension in saline",104 % of control
CNC(=O)/C=C/C1=CN2C(=O)c3ccc(C)c(O)c3NC(OC)C2C1 (configuration not stated),T/C,"dose: 0.01 mg/kg/injection, schedule: Q01DX009 (ip), vehicle: saline",90 % of control and 113 % of control
same,T/C,"dose: 0.02 mg/kg/injection, schedule: Q01DX009 (ip), vehicle: saline",93 % of control
same,T/C,"dose: 0.03 mg/kg/injection, schedule: Q01DX009 (ip), vehicle: saline",96 % of control
same,T/C,"dose: 0.05 mg/kg/injection, schedule: Q01DX009 (ip), vehicle: saline",97 % of control and 107 % of control
same,T/C,"dose: 0.1 mg/kg/injection, schedule: Q01DX009 (ip), vehicle: saline",90 % of control and 103 % of control
Nc1ncn(C2OC(CO)C(O)C2O)c(=O)n1 (configuration not stated),T/C,[13],111 % of control
same,T/C,[11],120 % of control
same,T/C,[8],115 % of control
same,T/C,[9],123 % of control
same,T/C,[12],170 % of control
same,T/C,"dose: 400.0 mg/kg/injection, schedule: Q01DX009 (ip), vehicle: saline",161 % of control
Cc1cc(=O)n2c3c(c4c(cc13)c(CN(C)C)cc(=O)n4C)OC2,T/C,[2],106 % of control
same,T/C,[3],105 % of control
same,T/C,[4],109 % of control
same,T/C,[5],123 % of control
CC1c2ccccc2CC(CCN(C)C)c2ccccc21 (configuration not stated),T/C,[2],100 % of control
same,T/C,[3],101 % of control
same,T/C,[4],107 % of control
same,T/C,[5],96 % of control
NC(=O)c1ccc[n+](Cc2c(Cl)cccc2Cl)c1,T/C,"dose: 5.0 mg/kg/injection, schedule: Q01DX009 (ip), vehicle: saline",104 % of control
same,T/C,"dose: 10.0 mg/kg/injection, schedule: Q01DX009 (ip), vehicle: saline",105 % of control
same,T/C,"dose: 20.0 mg/kg/injection, schedule: Q01DX009 (ip), vehicle: saline",104 % of control
same,T/C,"dose: 40.0 mg/kg/injection, schedule: Q01DX009 (ip), vehicle: saline",91 % of control
Nc1ccc2c(c1)CN1C(=O)c3ccccc3C1=N2,T/C,[4],117 % of control
same,T/C,[5],116 % of control
Cc1c2cc[n+](CCN3CCCCC3)cc2c(C)c2c1[nH]c1ccc(O)cc12,T/C,"dose: 1.56 mg/kg/injection, schedule: Q01DX009 (ip), vehicle: saline",94 % of control
same,T/C,"dose: 3.12 mg/kg/injection, schedule: Q01DX009 (ip), vehicle: saline",116 % of control
same,T/C,[13],106 % of control
same,T/C,[11],103 % of control
same,T/C,[8],104 % of control
C=C(C)C(=NC(C)(C)C)Nc1ccccc1,T/C,[2],99 % of control
same,T/C,[3],99 % of control
same,T/C,[4],90 % of control
same,T/C,[5],86 % of control
same,T/C,[6],99 % of control
same,T/C,[7],90 % of control
CCC12C[N+]3([O-])CCc4c([nH]c5ccccc45)C(C(=O)OC)(c4cc5c(cc4OC)N(C)C4C(O)(C(=O)OC)C(OC(C)=O)C6(CC)C=CCN7CCC54C76)CC(C3)C1O2 (configuration not stated),T/C,"dose: 0.62 mg/kg/injection, schedule: Q01DX009 (ip), vehicle: water",93 % of control
same,T/C,"dose: 1.25 mg/kg/injection, schedule: Q01DX009 (ip), vehicle: water",94 % of control
same,T/C,"dose: 2.5 mg/kg/injection, schedule: Q01DX009 (ip), vehicle: water",97 % of control
same,T/C,"dose: 5.0 mg/kg/injection, schedule: Q01DX009 (ip), vehicle: water",95 % of control
same,T/C,"dose: 10.0 mg/kg/injection, schedule: Q01DX009 (ip), vehicle: water",98 % of control
same,T/C,"dose: 20.0 mg/kg/injection, schedule: Q01DX009 (ip), vehicle: water",101 % of control
CN(C)[C@@H]1C(=O)C(C(N)=O)=C(O)[C@@]2(O)C(=O)C3=C(O)c4c(O)ccc(Cl)c4[C@@](C)(O)[C@H]3C[C@@H]12,T/C,[11],100 % of control
same,T/C,[8],100 % of control
same,T/C,[9],109 % of control
same,T/C,[10],113 % of control
same,T/C,[12],101 % of control
